Test results taken from ChEMBL document CHEMBL4804284.

How the values were obtained:
Design in all cases: scale not given: the % may be the effect or the level left
[1] = target: Cyclin-dependent kinase-like 3 (Homo sapiens) (UniProt Q8IVW4); test: Inhibition of DNA-tagged human CDKL3 assessed as percent of control at 50000 nM by qPCR analysis relative to control
[2] = target: Cyclin-dependent kinase 13 (Homo sapiens) (UniProt Q14004); test: Inhibition of DNA-tagged human CDC2L5 assessed as percent of control at 50000 nM by qPCR analysis relative to control
[3] = tested on: Tyrosine-protein kinase ABL1 (Homo sapiens), P00519 [F317I]; test: Inhibition of DNA-tagged non-phosphorylated human ABL1 F317I mutant assessed as percent of control at 50000 nM by qPCR analysis relative to control
[4] = target: Fibroblast growth factor receptor 3 (Homo sapiens) (UniProt P22607); test: Inhibition of DNA-tagged human FGFR3 assessed as percent of control at 50000 nM by qPCR analysis relative to control
[5] = target: Ribosomal protein S6 kinase alpha-1 (Homo sapiens) (UniProt Q15418); test: Inhibition of DNA-tagged human C-terminal RSK1 kinase domain 2 assessed as percent of control at 50000 nM by qPCR analysis relative to control
[6] = target: Serine/threonine-protein kinase RIO3 (Homo sapiens) (UniProt O14730); test: Inhibition of DNA-tagged human RIOK3 assessed as percent of control at 50000 nM by qPCR analysis relative to control
[7] = target: Ephrin type-B receptor 3 (Homo sapiens) (UniProt P54753); test: Inhibition of DNA-tagged human EPHB3 assessed as percent of control at 50000 nM by qPCR analysis relative to control
[8] = target: Homeodomain-interacting protein kinase 4 (Homo sapiens) (UniProt Q8NE63); test: Inhibition of DNA-tagged human HIPK4 assessed as percent of control at 50000 nM by qPCR analysis relative to control
[9] = target: Serine/threonine-protein kinase 16 (Homo sapiens) (UniProt O75716); test: Inhibition of DNA-tagged human STK16 assessed as percent of control at 50000 nM by qPCR analysis relative to control
[10] = target: Dual specificity protein kinase CLK2 (Homo sapiens) (UniProt P49760); test: Inhibition of DNA-tagged human CLK2 assessed as percent of control at 50000 nM by qPCR analysis relative to control
[11] = target: Tyrosine-protein kinase Lyn (Homo sapiens) (UniProt P07948); test: Inhibition of DNA-tagged human LYN assessed as percent of control at 50000 nM by qPCR analysis relative to control
[12] = target: Tyrosine-protein kinase Fgr (Homo sapiens) (UniProt P09769); test: Inhibition of DNA-tagged human FGR assessed as percent of control at 50000 nM by qPCR analysis relative to control
[13] = target: Serine/threonine-protein kinase SBK1 (Homo sapiens) (UniProt Q52WX2); test: Inhibition of DNA-tagged human SBK1 assessed as percent of control at 50000 nM by qPCR analysis relative to control
[14] = target: Homeodomain-interacting protein kinase 1 (Homo sapiens) (UniProt Q86Z02); test: Inhibition of DNA-tagged human HIPK1 assessed as percent of control at 50000 nM by qPCR analysis relative to control
[15] = target: Tyrosine-protein kinase JAK2 (Homo sapiens) (UniProt O60674); test: Inhibition of DNA-tagged human JAK2 JH1 catalytic domain assessed as percent of control at 50000 nM by qPCR analysis relative to control
[16] = target: Vascular endothelial growth factor receptor 1 (Homo sapiens) (UniProt P17948); test: Inhibition of DNA-tagged human FLT1 assessed as percent of control at 50000 nM by qPCR analysis relative to control
[17] = tested on: Receptor-type tyrosine-protein kinase FLT3 (Homo sapiens), P36888 [UNDEFINED MUTATION]; test: Inhibition of DNA-tagged human FLT3 ITD mutant assessed as percent of control at 50000 nM by qPCR analysis relative to control
[18] = target: Dual specificity mitogen-activated protein kinase kinase 3 (Homo sapiens) (UniProt P46734); test: Inhibition of DNA-tagged human MEK3 assessed as percent of control at 50000 nM by qPCR analysis relative to control
[19] = target: Platelet-derived growth factor receptor alpha (Homo sapiens) (UniProt P16234); test: Inhibition of DNA-tagged human PDGFRA assessed as percent of control at 50000 nM by qPCR analysis relative to control
[20] = target: Serine/threonine-protein kinase 35 (Homo sapiens) (UniProt Q8TDR2); test: Inhibition of DNA-tagged human STK35 assessed as percent of control at 50000 nM by qPCR analysis relative to control
[21] = target: Maternal embryonic leucine zipper kinase (Homo sapiens) (UniProt Q14680); test: Inhibition of DNA-tagged human MELK assessed as percent of control at 50000 nM by qPCR analysis relative to control
[22] = target: Fibroblast growth factor receptor 4 (Homo sapiens) (UniProt P22455); test: Inhibition of DNA-tagged human FGFR4 assessed as percent of control at 50000 nM by qPCR analysis relative to control
[23] = target: Cyclin-dependent kinase 7 (Homo sapiens) (UniProt P50613); test: Inhibition of DNA-tagged human CDK7 assessed as percent of control at 50000 nM by qPCR analysis relative to control
[24] = target: Mitogen-activated protein kinase kinase kinase kinase 5 (Homo sapiens) (UniProt Q9Y4K4); test: Inhibition of DNA-tagged human MAP4K5 assessed as percent of control at 50000 nM by qPCR analysis relative to control
[25] = target: Activin receptor type-2B (Homo sapiens) (UniProt Q13705); test: Inhibition of DNA-tagged human ACVR2B assessed as percent of control at 50000 nM by qPCR analysis relative to control
[26] = tested on: Epidermal growth factor receptor (Homo sapiens), P00533 [UNDEFINED MUTATION]; test: Inhibition of DNA-tagged human EGFR L747-S752del/P753S double mutant assessed as percent of control at 50000 nM by qPCR analysis relative to control
[27] = target: Serine/threonine-protein kinase D3 (Homo sapiens) (UniProt O94806); test: Inhibition of DNA-tagged human PRKD3 assessed as percent of control at 50000 nM by qPCR analysis relative to control
[28] = tested on: Tyrosine-protein kinase ABL1 (Homo sapiens), P00519 [UNDEFINED MUTATION]; test: Inhibition of DNA-tagged non-phosphorylated human ABL1 […] mutant assessed as percent of control at 50000 nM by qPCR analysis relative to control
[29] = target: Inhibitor of nuclear factor kappa-B kinase subunit epsilon (Homo sapiens) (UniProt Q14164); test: Inhibition of DNA-tagged human IKK-epsilon assessed as percent of control at 50000 nM by qPCR analysis relative to control

Sequence of Ribosomal protein S6 kinase alpha-1 (Homo sapiens) (Q15418 whole entry, the tested form may be a part): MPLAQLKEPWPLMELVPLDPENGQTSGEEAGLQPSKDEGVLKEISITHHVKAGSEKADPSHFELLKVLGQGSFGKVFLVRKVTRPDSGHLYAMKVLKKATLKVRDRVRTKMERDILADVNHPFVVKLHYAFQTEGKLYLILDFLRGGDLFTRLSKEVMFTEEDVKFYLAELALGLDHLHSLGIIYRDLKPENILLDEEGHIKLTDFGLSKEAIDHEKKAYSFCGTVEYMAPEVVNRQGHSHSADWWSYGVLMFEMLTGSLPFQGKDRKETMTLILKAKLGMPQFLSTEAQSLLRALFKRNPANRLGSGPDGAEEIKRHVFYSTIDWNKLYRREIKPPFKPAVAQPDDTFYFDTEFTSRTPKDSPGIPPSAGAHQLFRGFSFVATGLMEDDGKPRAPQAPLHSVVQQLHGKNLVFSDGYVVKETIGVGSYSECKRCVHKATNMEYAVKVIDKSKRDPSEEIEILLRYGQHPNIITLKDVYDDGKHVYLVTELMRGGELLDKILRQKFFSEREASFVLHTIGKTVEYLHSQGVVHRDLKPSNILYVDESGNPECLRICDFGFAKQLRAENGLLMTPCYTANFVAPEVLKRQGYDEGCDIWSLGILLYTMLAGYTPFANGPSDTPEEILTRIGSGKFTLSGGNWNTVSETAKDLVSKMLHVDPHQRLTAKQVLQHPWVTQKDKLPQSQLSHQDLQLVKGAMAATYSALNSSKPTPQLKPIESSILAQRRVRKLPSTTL
Sequence of Mitogen-activated protein kinase kinase kinase kinase 5 (Homo sapiens) (Q9Y4K4 whole entry, looked up): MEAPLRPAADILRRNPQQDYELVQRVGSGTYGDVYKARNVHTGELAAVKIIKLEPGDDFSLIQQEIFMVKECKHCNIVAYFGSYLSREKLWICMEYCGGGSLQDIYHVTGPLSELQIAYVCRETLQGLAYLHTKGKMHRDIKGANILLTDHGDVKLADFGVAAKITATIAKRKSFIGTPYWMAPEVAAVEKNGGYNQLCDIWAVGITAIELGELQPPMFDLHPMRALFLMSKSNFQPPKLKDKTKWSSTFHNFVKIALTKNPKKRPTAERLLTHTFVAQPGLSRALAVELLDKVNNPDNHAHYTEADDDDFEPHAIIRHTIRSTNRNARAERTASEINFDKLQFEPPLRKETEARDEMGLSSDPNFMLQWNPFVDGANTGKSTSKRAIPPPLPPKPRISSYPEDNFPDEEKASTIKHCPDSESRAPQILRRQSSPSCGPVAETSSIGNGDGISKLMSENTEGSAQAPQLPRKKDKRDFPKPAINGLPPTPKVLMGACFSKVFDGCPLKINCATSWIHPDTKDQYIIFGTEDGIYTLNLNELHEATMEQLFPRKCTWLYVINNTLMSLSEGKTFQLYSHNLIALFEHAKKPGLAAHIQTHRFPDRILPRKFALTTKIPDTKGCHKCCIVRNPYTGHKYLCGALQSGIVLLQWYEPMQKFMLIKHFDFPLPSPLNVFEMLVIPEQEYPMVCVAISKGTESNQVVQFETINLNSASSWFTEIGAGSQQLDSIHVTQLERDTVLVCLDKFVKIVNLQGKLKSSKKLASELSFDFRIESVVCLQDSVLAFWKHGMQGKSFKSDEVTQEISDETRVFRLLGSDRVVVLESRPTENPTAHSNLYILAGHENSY
Sequence of Tyrosine-protein kinase Lyn (Homo sapiens) (P07948 2-512 limits assumed): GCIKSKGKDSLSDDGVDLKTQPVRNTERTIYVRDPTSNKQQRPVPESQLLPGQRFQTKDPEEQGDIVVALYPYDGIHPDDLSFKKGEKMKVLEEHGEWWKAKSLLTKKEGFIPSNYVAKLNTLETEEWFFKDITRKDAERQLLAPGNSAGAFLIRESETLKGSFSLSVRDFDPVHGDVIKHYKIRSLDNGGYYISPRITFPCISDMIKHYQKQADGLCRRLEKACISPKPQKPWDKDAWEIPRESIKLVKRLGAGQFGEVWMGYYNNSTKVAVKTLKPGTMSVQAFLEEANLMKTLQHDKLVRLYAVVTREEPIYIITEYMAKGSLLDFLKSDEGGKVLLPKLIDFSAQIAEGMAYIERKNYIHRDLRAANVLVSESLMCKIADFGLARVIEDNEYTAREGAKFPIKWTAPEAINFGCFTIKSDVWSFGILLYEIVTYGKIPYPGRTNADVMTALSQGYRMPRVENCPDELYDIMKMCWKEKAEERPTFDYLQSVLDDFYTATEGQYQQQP
Sequence of Tyrosine-protein kinase ABL1 (Homo sapiens), P00519 [F317I] (P00519 whole entry F317I): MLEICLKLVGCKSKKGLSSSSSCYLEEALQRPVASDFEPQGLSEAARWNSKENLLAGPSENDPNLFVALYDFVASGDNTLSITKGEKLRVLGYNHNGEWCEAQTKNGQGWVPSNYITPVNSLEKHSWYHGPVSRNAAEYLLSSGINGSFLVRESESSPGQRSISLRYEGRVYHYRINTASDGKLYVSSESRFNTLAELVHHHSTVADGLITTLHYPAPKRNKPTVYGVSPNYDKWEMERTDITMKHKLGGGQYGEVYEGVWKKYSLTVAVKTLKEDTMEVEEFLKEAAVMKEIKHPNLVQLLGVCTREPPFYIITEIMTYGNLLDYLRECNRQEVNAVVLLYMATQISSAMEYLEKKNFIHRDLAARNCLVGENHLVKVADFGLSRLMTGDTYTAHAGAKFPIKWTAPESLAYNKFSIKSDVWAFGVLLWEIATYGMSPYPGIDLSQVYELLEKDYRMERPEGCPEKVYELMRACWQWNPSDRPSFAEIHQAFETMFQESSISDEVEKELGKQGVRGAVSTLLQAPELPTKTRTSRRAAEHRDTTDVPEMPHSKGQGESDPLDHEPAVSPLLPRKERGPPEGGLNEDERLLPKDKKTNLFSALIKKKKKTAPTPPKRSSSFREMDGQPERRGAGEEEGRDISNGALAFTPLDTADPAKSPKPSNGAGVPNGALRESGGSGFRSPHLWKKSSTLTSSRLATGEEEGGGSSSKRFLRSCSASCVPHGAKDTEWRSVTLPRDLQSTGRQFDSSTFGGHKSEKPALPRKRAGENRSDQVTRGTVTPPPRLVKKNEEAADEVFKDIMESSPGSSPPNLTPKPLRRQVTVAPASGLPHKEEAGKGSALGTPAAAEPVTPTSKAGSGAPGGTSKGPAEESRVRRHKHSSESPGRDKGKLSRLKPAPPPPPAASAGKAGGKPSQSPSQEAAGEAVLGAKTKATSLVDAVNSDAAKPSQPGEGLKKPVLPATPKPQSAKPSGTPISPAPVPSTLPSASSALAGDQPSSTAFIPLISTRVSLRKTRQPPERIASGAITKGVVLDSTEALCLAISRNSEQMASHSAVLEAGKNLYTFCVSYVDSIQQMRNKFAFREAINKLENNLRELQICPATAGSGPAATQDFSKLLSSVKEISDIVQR
Sequence of Tyrosine-protein kinase ABL1 (Homo sapiens), P00519 [UNDEFINED MUTATION] (P00519 whole entry, looked up, change not shown): as the sequence (P00519 whole entry F317I) above, with I317F counted along it
Sequence of Tyrosine-protein kinase Fgr (Homo sapiens) (P09769 2-529 limits assumed): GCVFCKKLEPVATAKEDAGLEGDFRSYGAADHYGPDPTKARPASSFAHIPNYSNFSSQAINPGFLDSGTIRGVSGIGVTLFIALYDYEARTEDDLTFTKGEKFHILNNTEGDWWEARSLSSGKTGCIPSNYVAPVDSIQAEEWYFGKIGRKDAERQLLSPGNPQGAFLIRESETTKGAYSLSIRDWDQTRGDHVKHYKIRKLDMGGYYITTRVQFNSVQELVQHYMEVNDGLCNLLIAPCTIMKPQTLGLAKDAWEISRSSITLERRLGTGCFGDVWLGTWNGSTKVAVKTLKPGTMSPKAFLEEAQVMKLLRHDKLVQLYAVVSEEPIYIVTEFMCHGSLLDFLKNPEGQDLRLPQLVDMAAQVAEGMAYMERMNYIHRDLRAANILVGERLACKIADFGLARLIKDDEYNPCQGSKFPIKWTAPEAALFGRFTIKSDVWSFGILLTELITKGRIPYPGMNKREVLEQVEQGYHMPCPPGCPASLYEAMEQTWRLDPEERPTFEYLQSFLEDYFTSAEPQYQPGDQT
Sequence of Serine/threonine-protein kinase 35 (Homo sapiens) (Q8TDR2 whole entry): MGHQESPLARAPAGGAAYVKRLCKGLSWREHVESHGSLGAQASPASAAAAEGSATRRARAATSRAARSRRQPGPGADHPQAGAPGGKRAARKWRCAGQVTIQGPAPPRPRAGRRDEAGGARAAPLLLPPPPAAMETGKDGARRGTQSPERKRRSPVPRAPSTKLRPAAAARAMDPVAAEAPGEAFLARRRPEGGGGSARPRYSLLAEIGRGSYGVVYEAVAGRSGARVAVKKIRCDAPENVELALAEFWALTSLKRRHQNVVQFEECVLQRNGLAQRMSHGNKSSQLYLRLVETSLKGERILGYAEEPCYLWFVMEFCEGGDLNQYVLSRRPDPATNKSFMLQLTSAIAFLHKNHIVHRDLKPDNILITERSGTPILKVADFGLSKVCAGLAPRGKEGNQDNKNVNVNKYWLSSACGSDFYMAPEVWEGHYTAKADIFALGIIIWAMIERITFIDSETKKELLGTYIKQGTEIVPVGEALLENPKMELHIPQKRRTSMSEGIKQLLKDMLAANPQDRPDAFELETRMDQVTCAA
Sequence of Serine/threonine-protein kinase SBK1 (Homo sapiens) (Q52WX2 whole entry): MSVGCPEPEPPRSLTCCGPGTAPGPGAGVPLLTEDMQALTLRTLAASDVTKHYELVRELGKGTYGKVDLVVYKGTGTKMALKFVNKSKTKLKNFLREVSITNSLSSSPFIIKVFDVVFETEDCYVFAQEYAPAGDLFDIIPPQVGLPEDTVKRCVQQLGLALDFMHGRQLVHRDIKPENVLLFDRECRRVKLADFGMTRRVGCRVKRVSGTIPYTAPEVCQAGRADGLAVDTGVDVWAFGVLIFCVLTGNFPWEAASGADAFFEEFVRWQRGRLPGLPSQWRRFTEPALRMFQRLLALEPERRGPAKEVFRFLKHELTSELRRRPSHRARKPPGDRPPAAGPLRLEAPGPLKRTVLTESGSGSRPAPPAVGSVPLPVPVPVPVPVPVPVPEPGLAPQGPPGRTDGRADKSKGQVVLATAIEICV

For `CN1C(=O)/C(=C2/C(=O)Nc3ccccc32)c2ccccc21`, the Activity [1] was 100%, the Activity [2] was 100% and the Activity [3] was 100%. For the same molecule, the Activity [4] was 100%, the Activity [5] was 84% and the Activity [6] was 89%. It also gave an Activity [7] of 90%, an Activity [8] of 100% and an Activity [9] of 89%. The Activity [10] was 75%, the Activity [11] was 100% and the Activity [12] was 95%. It also gave an Activity [13] of 100%, an Activity [14] of 83% and an Activity [15] of 73%. For the same molecule, the Activity [16] was 93%, the Activity [17] was 76% and the Activity [18] was 72%. For the same molecule, the Activity [19] was 85%, the Activity [20] was 89% and the Activity [21] was 83%. For the same molecule, the Activity [22] was 100%, the Activity [23] was 100% and the Activity [24] was 100%. The Activity [25] was 100%, the Activity [26] was 64% and the Activity [27] was 94%. The Activity [28] was 100% and the Activity [29] was 100%.
